Assay results taken from patent publication US5286864A, “Quinuclidines, their use as medicaments and processes for their preparation” (Boehringer Ingelheim KG, priority 1988, dated 1994).

Legend:
muscarine receptors = assay: Receptor bonding studies (radioligand L(+)cis-[2-methyl-^3 H]-N,N,N-trimethyl-1,3-dioxolane-4-methanammonium iodide); format: binding; conditions: cerebral cortex (rat); radioligand L(+)cis-[2-methyl-^3 H]-N,N,N-trimethyl-1,3-dioxolane-4-methanammonium iodide NET-647
Procedure: The compounds of the general formula I have useful pharmacological properties.
The receptor bonding studies were performed in accordance with the following literature reference [A. Closse, H. bittiger, D. Langenegger and A. Wahner; Naunyn-Schmiedeberg's Arch. Pharmacol. 335,372-377 (1987)].
Receptor bonding studies
L(+)cis-[2-methyl-^3 H]-N,N,N-trimethyl-1,3-
dioxolane-4-methanammonium iodide NET-647,
NEN (New England Nuclear DU PONT).
Organ: Cerebral cortex (rat)

conscious rabbit = assay: EEG (electroencephalogram) of the conscious rabbit; format: in vivo; conditions: 3 mg/kg i.v.

Row | Structure (SMILES) | Ki (muscarine receptors) [nM] | arousal reaction in the EEG (conscious rabbit)
1 | CCCOC1CN2CCC1CC2 (stereo not drawn) [nC3 H7] | 220 | 
2 | C#CCOC1CN2CCC1CC2 (stereo not drawn) [Example 1, 3-(2-Propynyloxy)-1-azabicyclo[2,2,2]octane] | 159 | exhibits an arousal reaction typical of cholinomimetics
